# Data published in ChEMBL document CHEMBL4304783, “Discovery of a Novel Selective Dual Peroxisome Proliferator-Activated Receptor α/δ Agonist for the Treatment of Primary Biliary Cirrhosis” (ACS Med Chem Lett, 2019).
# Experiments:
# [1] = target: T1, Peroxisome proliferator-activated receptor alpha (Homo sapiens, UniProt Q07869); experiment: Agonist activity at PPARalpha (unknown origin) incubated for 3 to 16 hrs by pathhunter nuclear hormone receptor assay
# T1 sequence (Q07869 whole entry): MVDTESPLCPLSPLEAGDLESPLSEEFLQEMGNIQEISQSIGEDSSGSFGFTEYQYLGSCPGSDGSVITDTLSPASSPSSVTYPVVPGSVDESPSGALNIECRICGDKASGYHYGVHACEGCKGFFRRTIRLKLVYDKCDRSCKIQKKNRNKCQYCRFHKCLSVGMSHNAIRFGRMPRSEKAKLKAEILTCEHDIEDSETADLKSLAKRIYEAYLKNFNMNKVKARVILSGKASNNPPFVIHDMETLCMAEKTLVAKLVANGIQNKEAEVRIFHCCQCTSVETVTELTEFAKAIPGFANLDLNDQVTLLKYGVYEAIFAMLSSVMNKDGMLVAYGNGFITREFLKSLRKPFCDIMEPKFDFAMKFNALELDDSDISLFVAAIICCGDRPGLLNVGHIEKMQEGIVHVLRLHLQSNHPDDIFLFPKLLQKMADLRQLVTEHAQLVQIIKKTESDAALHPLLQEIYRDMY
# [2] = target: T2, Peroxisome proliferator-activated receptor alpha (Homo sapiens) (UniProt Q07869); experiment: Agonist activity at PPARalpha (unknown origin) incubated for 3 to 16 hrs by pathhunter nuclear hormone receptor assay relative to GW7647; parameters: concentration or dose not given beside the values
# T2 sequence (whole entry): T1 sequence (Q07869 whole entry)
# [3] = Stability in rat plasma assessed as remaining compound incubated for 2 hrs; assay type: ADME, cell-free; details: read-out: Stability
# [4] = Apparent permeability across apical to basolateral side in human Caco2 cells at 2 uM incubated for 120 mins by LC-MS/MS analysis; assay type: ADME, cell-based; details: Caco-2
# [5] = Apparent permeability across basolateral to apical side in human Caco2 cells at 2 uM incubated for 120 mins by LC-MS/MS analysis; assay type: ADME, cell-based; details: Caco-2
# Cytochrome P450 1A2 = target: T3, Cytochrome P450 1A2 (Homo sapiens, UniProt P05177); experiment: Inhibition of CYP1A2 in human liver microsomes using phenacetin as substrate incubated for 10 mins followed by substrate addition further incubated for 10 mins by LC-MS/MS analysis; assay type: ADME
# T3 sequence (P05177 whole entry): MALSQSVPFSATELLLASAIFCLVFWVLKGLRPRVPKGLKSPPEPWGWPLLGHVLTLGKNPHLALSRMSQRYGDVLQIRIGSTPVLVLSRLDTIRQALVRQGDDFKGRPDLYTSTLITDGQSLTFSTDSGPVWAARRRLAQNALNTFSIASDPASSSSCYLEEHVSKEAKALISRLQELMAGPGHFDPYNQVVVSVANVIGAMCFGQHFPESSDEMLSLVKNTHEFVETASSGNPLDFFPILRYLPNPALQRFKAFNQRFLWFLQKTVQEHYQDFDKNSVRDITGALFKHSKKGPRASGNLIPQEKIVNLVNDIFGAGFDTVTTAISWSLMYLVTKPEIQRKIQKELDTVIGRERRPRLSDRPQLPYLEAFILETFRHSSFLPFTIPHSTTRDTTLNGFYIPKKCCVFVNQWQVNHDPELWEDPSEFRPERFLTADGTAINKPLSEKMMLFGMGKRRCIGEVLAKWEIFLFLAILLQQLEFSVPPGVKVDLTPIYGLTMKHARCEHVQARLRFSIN
# Cytochrome P450 2D6 = Cytochrome P450 2D6 (Homo sapiens, UniProt P10635); experiment: Inhibition of CYP2D6 in human liver microsomes using dextromethorphan as substrate incubated for 10 mins followed by substrate addition further incubated for 10 mins by LC-MS/MS analysis; assay type: ADME
# [6] = Clearance in C57BL/6J mouse at 1 mg/kg, iv measured upto 24 hrs by LC-MS/MS analysis; assay type: ADME, organism-based; details: in vivo
# [7] = Half life in C57BL/6J mouse at 1 mg/kg, iv measured upto 24 hrs by LC-MS/MS analysis; assay type: ADME, organism-based; details: in vivo
# [8] = AUC (0 to last) in C57BL/6J mouse at 10 mg/kg, po measured upto 24 hrs by LC-MS/MS analysis; assay type: ADME, organism-based; parameters: dose 10 mg/kg, route oral, time 0 - last; details: in vivo
# [9] = Clearance in Sprague-Dawley rat at 1 mg/kg, iv measured upto 24 hrs by LC-MS/MS analysis; assay type: ADME, organism-based; details: in vivo
# [10] = Half life in Sprague-Dawley rat at 1 mg/kg, iv measured upto 24 hrs by LC-MS/MS analysis; assay type: ADME, organism-based; details: in vivo
# [11] = AUC (0 to last) in Sprague-Dawley rat at 1 mg/kg, iv measured upto 24 hrs by LC-MS/MS analysis; assay type: ADME, organism-based; parameters: dose 1 mg/kg, route intravenous, time 0 - last; details: in vivo
# [12] = Tmax in Sprague-Dawley rat at 10 mg/kg, po measured upto 24 hrs by LC-MS/MS analysis; assay type: ADME, organism-based; details: in vivo
# Bile acid receptor = target: T4, Bile acid receptor (Homo sapiens, UniProt Q96RI1); experiment: Binding affinity to human recombinant GST-tagged FXR LBD (193-472 residues) expressed in baculovirus infected insect cells incubated for 1 hr by luminometry
# T4 sequence (Q96RI1 whole entry): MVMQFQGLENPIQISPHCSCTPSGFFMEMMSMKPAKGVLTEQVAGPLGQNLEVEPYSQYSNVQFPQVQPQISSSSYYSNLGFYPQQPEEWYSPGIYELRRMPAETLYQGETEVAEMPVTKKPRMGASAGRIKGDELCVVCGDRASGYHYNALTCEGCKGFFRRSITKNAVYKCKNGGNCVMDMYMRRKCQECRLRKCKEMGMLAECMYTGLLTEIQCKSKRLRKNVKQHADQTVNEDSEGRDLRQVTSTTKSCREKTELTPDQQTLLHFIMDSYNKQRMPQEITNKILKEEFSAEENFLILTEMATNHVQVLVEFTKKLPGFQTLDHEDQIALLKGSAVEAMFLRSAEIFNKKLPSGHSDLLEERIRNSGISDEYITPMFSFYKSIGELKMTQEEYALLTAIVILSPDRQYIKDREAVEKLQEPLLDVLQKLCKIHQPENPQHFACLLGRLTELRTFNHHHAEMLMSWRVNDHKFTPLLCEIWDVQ
# [13] = Oral bioavailability in C57BL/6J mouse at 10 mg/kg upto 24 hrs by LC-MS/MS analysis; details: in vivo
# Chain of Cytochrome P450 2D6 (P10635 whole entry): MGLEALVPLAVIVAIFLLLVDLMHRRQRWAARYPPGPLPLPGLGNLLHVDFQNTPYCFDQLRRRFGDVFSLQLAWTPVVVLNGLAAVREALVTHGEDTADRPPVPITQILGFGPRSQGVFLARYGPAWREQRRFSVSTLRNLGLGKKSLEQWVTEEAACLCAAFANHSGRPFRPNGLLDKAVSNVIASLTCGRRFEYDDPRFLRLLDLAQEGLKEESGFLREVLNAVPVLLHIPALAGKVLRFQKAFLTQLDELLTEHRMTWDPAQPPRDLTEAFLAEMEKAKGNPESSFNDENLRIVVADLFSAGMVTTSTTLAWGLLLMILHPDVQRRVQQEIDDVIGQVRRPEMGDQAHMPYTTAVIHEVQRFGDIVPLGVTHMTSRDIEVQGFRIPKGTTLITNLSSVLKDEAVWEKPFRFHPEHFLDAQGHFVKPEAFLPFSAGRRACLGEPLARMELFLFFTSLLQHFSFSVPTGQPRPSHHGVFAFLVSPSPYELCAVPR
compound,measurement,setting,value
Cc1cc(Cc2cc(-c3ccc(Br)cc3)on2)cc(C)c1OC(C)(C)C(=O)O,EC50,[1],0.008 µM
same,Activity,[2],92%
same,remaining at 2 h,[3],96%
same,"Papp A→B at 2 h, 2 µM",[4],0.5 ×10⁻⁶ cm/s
same,"Papp B→A at 2 h, 2 µM",[5],0.2 ×10⁻⁶ cm/s
same,IC50,Cytochrome P450 1A2,10 µM
same,IC50,Cytochrome P450 2D6,> 50 µM
same,clearance,[6],3.53 mL/min/kg
same,half-life,[7],3.6 h
same,AUC(0-t) at 24 h,[8],63.2 µM·h
same,clearance,[9],0.35 mL/min/kg
same,half-life,[10],6 h
same,AUC(0-t) at 24 h,[11],105 µM·h
same,Tmax,[12],1.33 h
same,IC50,Bile acid receptor,> 50 µM
same,bioavailability,[13],59.8%
